Reference: EP0638553A1, “Carboxylic acid amides having a terminal carboxylic acid group as aggregation inhibiting drugs” (Dr. Karl Thomae GmbH, priority 1993, dated 1995)
Where a name gives a salt, the structure may show the parent alone.

Tests used:
Thrombozytenaggregation = assay: Collagen-induced platelet aggregation in platelet-rich plasma (method of Born and Cross); type: cell-based; conditions: human platelet-rich plasma, 10 min preincubation at 37°C, 50% change of optical density, read-out: Hemmung der Plättchenaggregation EC₅₀
Source text: 2. Antithrombotische Wirkung
Die Thrombozytenaggregation wird nach der Methode von Born und Cross (J. Physiol. 170, 397 (1964)) in plättchenreichem Plasma gesunder Versuchspersonen gemessen. Zur Gerinnungshemmung wird das Blut mit Natriumcitrat 3,14 % im Volumenverhältnis 1:10 versetzt.
Collagen-induzierte Aggregation
Der Verlauf der Abnahme der optischen Dichte der Plättchensuspension wird nach Zugabe der aggregationsauslösenden Substanz photometrisch gemessen und registriert. Aus dem Neigungswinkel der Dichtekurve wird auf die Aggregationsgeschwindigkeit geschlossen. Der Punkt der Kurve, bei dem die größte Lichtdurchlässigkeit vorliegt, dient zur Berechnung der "optical density".
Die Collagen-Menge wird möglichst gering gewählt, aber doch so, daß sich eine irreversibel verlaufende Reaktionskurve ergibt. Verwendet wird das handelsübliche Collagen der Firma Hormonchemie, München.
Vor der Collagen-Zugabe wird das Plasma jeweils 10 Minuten mit der Substanz bei 37°C inkubiert.
Aus den erhaltenen Meßzahlen wird graphisch eine EC₅₀ bestimmt, die sich auf eine 50%ige Änderung der "optical density" im Sinne einer Aggregationshemmung bezieht.

Maus = assay: Tolerability after intravenous administration to the mouse; type: in vivo; conditions: 30 mg/kg intravenous, 3 animals tested
Humanthrombozyten = assay: Inhibition of the binding of ³H-BIBU 52 to human platelets (fibrinogen binding test); conditions: displacement of ³H-BIBU 52 (5 nM) from human platelets in plasma, 20 min at room temperature; read-out: Fibrinogen-Bindungstest IC₅₀
Source text: 1. Hemmung der Bindung von ³H-BIBU 52 an Humanthrombozyten:
Eine Suspension von Humanthrombozyten in Plasma wird mit ³H-BIBU 52 [= (3S,5S)-5-[(4'-Amidino-4-biphenylyl)oxymethyl]-3-[(carboxyl)methyl]-2-pyrrolidinon[3-³H-4-biphenylyl]], das den literaturbekannten Liganden ¹²⁵J-Fibrinogen ersetzt, (siehe deutsche Patentanmeldung P 42 14 245.8 der gleichen Anmelderin vom 30. 04. 1992, internes Zeichen: Case 5/1093-FL) und verschiedenen Konzentrationen der zu testenden Substanz inkubiert. Der freie und gebundene Ligand wird durch Zentrifugation getrennt und durch Szintillationszählung quantitativ bestimmt. Aus den Meßwerten wird die Hemmung der ³H-BIBU 52-Bindung durch die Testsubstanz bestimmt.
Hierzu wird aus einer Antikubitalvene Spenderblut entnommen und mit Trinatriumzitrat antikoaguliert (Endkonzentration 13 mM). Das Blut wird 10 Minuten bei 170 x g zentrifugiert und das überstehende plättchenreiche Plasma (PRP) abgenommen. Das Restblut wird zur Gewinnung von Plasma noch einmal scharf abzentrifugiert. Das PRP wird mit autologem Plasma 1:10 verdünnt. 750 ml werden mit 50 ml physiologischer Kochsalzlösung, 100 ml Testsubstanzlösung, 50 ml ¹⁴C-Sucrose (3.700 Bq) und 50 ml ³H-BIBU 52 (Endkonzentration: 5 nM) bei Raumtemperatur 20 Minuten inkubiert. Zur Messung der unspezifischen Bindung wird anstelle der Testsubstanz 5 ml BIBU 52 (Endkonzentration: […]) eingesetzt. Die Proben werden 20 Sekunden bei 10000 x g zentrifugiert und der Überstand abgezogen. 100 ml hiervon werden zur Bestimmung des freien Liganden gemessen. Das Pellet wird in 500 ml 0,2N NaOH gelöst, 450 ml werden mit 2 ml Szintillator und 25 ml 5N HCl versetzt und gemessen. Das im Pellet noch verbliebene Restplasma wird aus dem ¹⁴C-Gehalt bestimmt, der gebundene Ligand aus der ³H-Messung. Nach Abzug der unspezifischen Bindung wird die Pelletaktivität gegen die Konzentration der Testsubstanz aufgetragen und die Konzentration für eine 50%ige Hemmung der Bindung ermittelt.

| Structure (SMILES) | EC50 (Thrombozytenaggregation) [nM] | IC50 (Humanthrombozyten) [nM] | Mortality (verstorbene Tiere) (Maus) |
| --- | --- | --- | --- |
| O=C(N[C@H]1CC[C@H](C(=O)O)CC1)N1CCC(OCC2CCNCC2)CC1 [3(17), trans-4-[[4-[(4-Piperidinyl)-methyloxy]-1-piperidinyl]-carbonylamino]-cyclohexancarbonsäure] | 300 | 91 | keines der 3 getesteten Tiere verstarb |
| O=C(O)CN(CCNC(=O)N1CCC(OCC2CCNCC2)CC1)CC(=O)O [1(14), N-Carboxymethyl-N-[2-[[4-[(4-piperidinyl)-methyloxy]-1-piperidinyl]-carbonylamino]-ethyl]-glycin] | 23000 | 6900 |  |
| COC(=O)[C@H]1CC[C@H](NC(=O)N2CCC(OCC3CCNCC3)CC2)CC1 [4(23), trans-4-[[4-[(4-Piperidinyl)-methyloxy]-1-piperidinyl]-carbonylamino]-cyclohexancarbonsäure-methylester-hydrochlorid] | 370 | 180 | keines der 3 getesteten Tiere verstarb |
| O=C(N[C@H]1CC[C@H](C(=O)O)CC1)c1ccc(CCC23CCN(CC2)CC3)cc1 [1(2), trans-4-[4-[2-(4-Chinuclidinyl)-ethyl]-benzoylamino]-cyclohexancarbonsäure] |  |  | keines der 3 getesteten Tiere verstarb |
| O=C(N[C@H]1CC[C@H](C(=O)O)CC1)c1ccc(OCC23CCN(CC2)CC3)cc1 [Beispiel 3, trans-4-[4-[(4-Chinuclidinyl)-methyloxy]-benzoylamino]-cyclohexancarbonsäure-hydrochlorid] | 360 | 85 | keines der 3 getesteten Tiere verstarb |
| NCC1CCc2cc(C(=O)N[C@H]3CC[C@H](CCC(=O)O)CC3)ccc2C1 (stereo partly drawn) [3(24), 3-[trans-4-[(2-Aminomethyl-1,2,3,4-tetrahydro-6-naphthyl)-carbonylamino]-cyclohexyl]-propionsäure-hydrochlorid] | 4410 | 1500 |  |
| O=C(O)CC1CCN(C(=O)c2ccc(CCC34CCN(CC3)CC4)cc2)CC1 [1(1), 4-Carboxymethyl-1-[4-[2-(4-chinuclidinyl)-ethyl]-benzoyl]-piperidin] | 610 | 360 |  |
| NC1(C(=O)O)CCC(NC(=O)N2CCC(OCC3CCNCC3)CC2)CC1 (stereo not drawn) [1(9), 1-Carboxy-cis-4-[[4-[(4-piperidinyl)-methyloxy]-1-piperidinyl]-carbonylamino]-cyclohexylamin] | 1300 | 130 |  |
| CCCCS(=O)(=O)NC1(C(=O)O)CCC(NC(=O)N2CCC(OCC3CCNCC3)CC2)CC1 (stereo not drawn) [1(7), N-[1-Carboxy-cis-4-[[4-[(4-piperidinyl)-methyloxy]-1-piperidinyl]-carbonylamino]-cyclohexyl]-n-butansulfonamid] | 3100 | 1500 |  |

Second part, led by results:

| EC50 (Thrombozytenaggregation) [nM] | IC50 (Humanthrombozyten) [nM] | Structure (SMILES) | Mortality (verstorbene Tiere) (Maus) |
| --- | --- | --- | --- |
| 1200 | 630 | O=C(N[C@H]1CC[C@H](C(=O)O)CC1)c1cccc(OCC2CCNCC2)c1 [3(15), trans-4-[3-[(4-Piperidinyl)-methyloxy]-benzoylamino]-cyclohexancarbonsäure-hydrochlorid] |  |
| 5800 | 6400 | O=C(O)CC1CCN(C(=O)c2ccc(NCC3CCNCC3)cc2)CC1 [3(8), 4-Carboxymethyl-1-[4-[[(4-piperidinyl)-methyl]-amino]-benzoyl]-piperidin-hydrochlorid] |  |
| 270 | 160 | O=C(N[C@H]1CC[C@H](C(=O)O)CC1)N1CCC(COC2CCNCC2)CC1 [3(16), trans-4-[[4-[(4-Piperidinyl)-oxymethyl]-1-piperidinyl]-carbonylamino]-cyclohexancarbonsäure-hydrochlorid] |  |
| 2060 | 2100 | O=C(NC1CCNCC1)c1ccc(C(=O)N[C@H]2CC[C@H](C(=O)O)CC2)cc1 [3(4), trans-4-[4-[(4-Piperidinyl)-aminocarbonyl]-benzoylamino]-cyclohexancarbonsäure-hydrochlorid] |  |
| 270 | 190 | O=C(N[C@H]1CC[C@H](C(=O)O)CC1)c1ccc(OCC2CCNCC2)cc1 [3(23), trans-4-[4-[(4-Piperidinyl)-methyloxy]-benzoylamino]-cyclohexancarbonsäure-hydrochlorid] |  |
| 1700 | 550 | O=C(N[C@H]1CC[C@H](C(=O)O)CC1)c1cccc(CCC23CCN(CC2)CC3)c1 [Beispiel 1, trans-4-[3-[2-(4-Chinuclidinyl)-ethyl]-benzoylamino]-cyclohexancarbonsäure] |  |
| 970 | 130 | NCCOc1ccc(C(=O)N[C@H]2CC[C@H](CCC(=O)O)CC2)cc1 [4(32)] |  |
| 1200 |  | NCCc1ccc(C(=O)N[C@H]2CC[C@H](CCC(=O)O)CC2)cc1 [3(32), trans-1-[4-(2-Amino-ethyl)-benzoylamino]-4-(2-carboxyethyl)-cyclohexan-hydrochlorid] |  |
| 1070 | 1200 | O=C(N[C@H]1CC[C@H](C(=O)O)CC1)c1ccc(CCc2ccncc2)cc1 [3(30), trans-4-[4-[2-(4-Pyridyl)-ethyl]-benzoylamino]-cyclohexan-carbonsäure-hydrochlorid] |  |
| 3200 | 2300 | O=C(N[C@H]1CC[C@H](C(=O)O)CC1)c1ccc(NC(=O)C2CCNCC2)cc1 [3(9), trans-4-[4-[(4-Piperidinyl)-carbonylamino]-benzoylamino]-cyclohexancarbonsäure-hydrochlorid] |  |
| 3370 | 840 | NCCOc1ccc(C(=O)N[C@H]2CC[C@H](OCC(=O)O)CC2)cc1 [4(34)] |  |
| 45000 | 49000 | O=C(O)CCC1CCN(C(=O)c2ccc(NCC3CCNCC3)cc2)CC1 [3(7), 4-(2-Carboxy-ethyl)-1-[4-[[(4-piperidinyl)-methyl]-amino]-benzoyl]-piperidin-hydrochlorid] |  |
